Results as given in patent US11123398B2, “Chemotherapeutic combinations of cationic antimicrobial peptides and chemotherapeutics” (LYTIX BIOPHARMA AS, priority 2014, dated 2021).
Non-standard residues stand in square brackets, D forms with d. Residues, ends and D or L forms follow the SMILES beside them. Dip = N[C@H](C(=O)O)C(c1ccccc1)c1ccccc1

Legend:
[1] = tested on: A375 cells; assay: Release of cytochrome-C (ELISA); format: cell-based, human; details: 35 μM, 5, 15, 45 min
Method: A375 cells were seeded as with HMGB1 studies, and treated with 35 μM for different time points (5, 15, 45). Supernatants were collected and concentrated as with HMGB1 studies, and samples from the supernatants were analyzed using a 4.5 hour solid form Cytochrome C—Elisa kit (R&D Systems, USA, #DCTCO) following the manufacturer's description. Shortly thereafter, a 50% diluted sample was analyzed and the optical density was determined using a microplate reader set at 450 nm, and this reading was then subtracted from the reading at 540 nm. A standard curve was generated for each set of samples assayed. Samples were run in four parallels, and the cytochrome-c released into the supernatant was expressed as a fold over the level of cytochrome-c in the supernatant of untreated cells.

[2] = tested on: panel of 10 lymphoma cell lines; format: cell-based, human
Method: Tumor cells were plated in 96-well flat-bottom microtitration plates (Nunc, Dutscher, Brumath, France) and incubated at 37° C. for 24 hours before treatment in 190 μl of drug-free and FBS-free culture medium.
[…] compounds in ¼ dilution step with a top dose of 400 μM (range 4×10^−4 to […]), with 1% (final concentration) Triton X-100 as positive control and FBS-free culture medium as negative control. The cells (190 μl) were incubated in a 200 μl final volume of FBS-free culture medium containing test substances at 37° C. under 5% CO2.
Three independent experiments were performed, each concentration being issued from quadruplicate. Control cells were treated with vehicle alone. At the end of treatments, the cytotoxic activity was evaluated by a MTS assay (see § 3.3 below).
Like MTT, MTS is bioreduced by cells into a formazan product that is directly soluble in culture medium without processing, unlike MTT.
At the end of the cells treatment, 40 μl of a 0.22 μm filtered freshly combined solution of MTS (20 ml at 2 mg/ml, Ref G1111, Batch 235897, Exp March 2009, Promega, Charbonnières, France) and PMS (1 ml at 0.92 mg/ml, Ref P9625, Batch 065K0961, Sigma) in Dulbecco's Phosphate Buffered Saline (DPBS, Ref 17-513Q, Batch 6MB0152, Cambrex), were added in each well. Culture plates were incubated for 2 h at 37° C. Absorbency (OD) were measured at 490 nm in each well using VICTOR^3™ 1420 multilabeled counter (Wallac, PerkinElmer, Courtaboeuf, France).
4.1. IC50 Data was Determined as in Example 1

[3] = tested on: A375 cells; assay: Mitotracker confocal imaging (mitochondrial membrane potential); format: cell-based, human; details: short time after peptide treatment; data not shown
Method: Cells were seeded as for live cell imaging, and treated with Mitotracker CMH2XROS (Invitrogen) at […] for 15 minutes prior to peptide treatment. Cells were treated with 17 μM LTX-315, with negative control serum-free RPMI only. After 60 min of incubation, cells were analyzed using a Zeiss microscope. All confocal imaging experiments were subsequently conducted at least twice with similar results.

[4] = Exposure time for cell killing (background statement); format: cell-based
[5] = tested on: murine CT26WT colon carcinoma; assay: Murine CT26WT colon carcinoma tumours in mice, treatment regimes; format: in vivo; details: for Mean tumour size at day 1: prior to start of treatment
Method: The administration takes place by intra-tumoural injection of LTX-315 dissolved in sterile saline (0.9% NaCl in sterile water).
The mice were divided into five groups, 8 mice in each group. When the tumours reached the desired size of 20 mm^2 the treatment by intra tumoural injection was initiated. Group one was treated solely on day 1, Group two on day 1 and 2, Group three on day 1 and 3 and Group four on day 1, 2 and 3. All daily treatments were one single injection of 1.0 mg LTX-315 dissolved in 50 μl (20 mg/ml). Group five was treated with the 50 μl of vehicle for LTX-315 (Group 5).
Weighing and physical examination were used as health controls.

[6] = tested on: A375 cells; assay: Release of ATP (luciferase assay); format: cell-based, human; details: luciferase detection; concentration-dependent
Method: The supernatant of LTX-315-treated A375 cells was analyzed using an Enliten ATP luciferase assay kit (Promega, USA). Cells were then seeded as with an ROS assay, and treated with LTX-315 in different incubation times, from 1 to 15 minutes with two parallels, which was then conducted three times. Negative controls were untreated A375 cells exposed to serum-free media alone. Samples were diluted at 1:50 and 1:100, and analyzed with a Luminoscan RT luminometer according to the manufacturer's protocol.

[7] = Group 1: 1 mg intratumoural on day 1
[8] = Group 2: 1 mg intratumoural on days 1, 2
[9] = Group 3: 1 mg intratumoural on days 1, 3
[10] = Group 4: 1 mg days 1, 2, 3, n=8
[11] = Group 4: 1 mg intratumoural on days 1, 2, 3
[12] = of the 32 treated animals, all four regimes

NCCCC[C@H](NC(=O)[C@@H](NC(=O)[C@H](Cc1c[nH]c2ccccc12)NC(=O)[C@H](CCCCN)NC(=O)[C@H](CCCCN)NC(=O)[C@H](Cc1c[nH]c2ccccc12)NC(=O)[C@H](Cc1c[nH]c2ccccc12)NC(=O)[C@H](CCCCN)NC(=O)[C@@H](N)CCCCN)C(c1ccccc1)c1ccccc1)C(N)=O [LTX-315, K-K-W-W-K-K-W-Dip-K-NH2] (H-KKWWKKW[Dip]K-NH2)
Cytochrome-C in the supernatant compared to untreated control cells [1]: three times more | Potency rank among the five compounds tested, lymphoma panel [2]: most potent compound from the five compounds tested | IC50 range against 10 human lymphoma cell lines ([2]; conclusion): micromolar range | Mitochondrial membrane potential (Mitotracker signal) [3]: loss of mitochondrial signal | Exposure time causing cell death [4]: 30 min | Animals showing complete tumour response ([5]; Group 1: 1 mg day 1): four out of eight | Free of Tumour at end of Follow-Up ([5]; Group 1: 1 mg day 1, n=8): 50% (4/8) | Relapse of Tumour ([5]; Group 1: 1 mg day 1, n=8): 20% (1/5) | Tumour Response: complete response ([5]; Group 1: 1 mg day 1, n=8): 62.5% | Tumour Response: no response ([5]; Group 1: 1 mg day 1, n=8): 0% | Tumour Response: partial response ([5]; Group 1: 1 mg day 1, n=8): 27.5% | Mean tumour size on day 6 [5, 7]: 4.343 ± 2.295 mm^2 | Mean tumour size on day 10 [5, 7]: 7.171 ± 4.035 mm^2 | Mean tumour size on day 17 [5, 7]: 3.712 ± 3.712 mm^2 | Mean tumour size at day 1 [5, 7]: 22.69 ± 0.4070 mm^2 | Animals showing complete tumour response ([5]; Group 2: 1 mg days 1, 2): two out of eight | Free of Tumour at end of Follow-Up ([5]; Group 2: 1 mg days 1, 2, n=8): 25% (2/8) | Relapse of Tumour ([5]; Group 2: 1 mg days 1, 2, n=8): 71% (5/7) | Tumour Response: complete response ([5]; Group 2: 1 mg days 1, 2, n=8): 87.5% | Tumour Response: no response ([5]; Group 2: 1 mg days 1, 2, n=8): 0% | Tumour Response: partial response ([5]; Group 2: 1 mg days 1, 2, n=8): 12.5% | Mean tumour size on day 6 [5, 8]: 1.458 ± 1.458 mm^2 | Mean tumour size on day 10 [5, 8]: 5.058 ± 4.014 mm^2 | Mean tumour size on day 17 [5, 8]: 6.644 ± 3.430 mm^2 | Mean tumour size at day 1 [5, 8]: 22.90 ± 1.155 mm^2 | Animals showing complete tumour response ([5]; Group 3: 1 mg days 1, 3): five out of eight | Free of Tumour at end of Follow-Up ([5]; Group 3: 1 mg days 1, 3, n=8): 62.5% (5/8) | Relapse of Tumour ([5]; Group 3: 1 mg days 1, 3, n=8): 29% (2/7) | Tumour Response: complete response ([5]; Group 3: 1 mg days 1, 3, n=8): 87.5% | Tumour Response: no response ([5]; Group 3: 1 mg days 1, 3, n=8): 12.5% | Tumour Response: partial response ([5]; Group 3: 1 mg days 1, 3, n=8): 0% | Mean tumour size on day 6 [5, 9]: 2.983 ± 2.983 mm^2 | Mean tumour size on day 10 [5, 9]: 10.85 ± 7.553 mm^2 | Mean tumour size on day 17 [5, 9]: 0.00 ± 0.00 mm^2 | Mean tumour size at day 1 [5, 9]: 21.43 ± 1.141 mm^2 | Animals showing complete tumour response ([5]; Group 4: 1 mg days 1, 2, 3): five out of eight | Free of Tumour at end of Follow-Up [5, 10]: 62.5% (5/8) | Relapse of Tumour [5, 10]: 37.5% | Tumour Response: complete response [5, 10]: 100% (8/8) | Tumour Response: no response [5, 10]: 0% | Tumour Response: partial response [5, 10]: 0% | Mean tumour size on day 6 [5, 11]: 0.00 ± 0.00 mm^2 | Mean tumour size on day 10 [5, 11]: 0.00 ± 0.00 mm^2 | Mean tumour size on day 17 [5, 11]: 1.308 ± 1.308 mm^2 | Mean tumour size at day 1 [5, 11]: 24.09 ± 1.653 mm^2 | Anti-tumour effect ([5]; all four treatment regimes): strong anti tumour effect | Toxic or other adverse effects ([5]; all treated groups, intratumoural 1 mg): No toxic or other adverse effects besides local necrotic tissue and wound formation were observed | Animals without response to the treatment ([5]; of the 32 treated animals (in Group 3)): one | Animals with a complete tumour response [5, 12]: 27 | Animals with a partial response [5, 12]: four | ATP release into supernatant [6]: ATP was detected in the supernatant as early as after 5 minutes of treatment
